Source: US20240401154A1, “SYNTHESIS AND PREPARATION OF ULTRA-LOW VISCOSITY AND HIGH MAGNETIC SUSCEPTIBILITY MAGNETIC IONIC LIQUIDS” (priority 2023, published 2024)
Marks after values point to notes of the source that are not given here.

How the values were obtained:
Type in all cases: physicochemical
[1] = Solubility of MILs in organic solvents and water
Excerpt: The solubility of lanthanide and transition metal MILs was investigated in popular traditional organic solvents. […]
The solubility of lanthanide and transition metal MILs was investigated in popular traditional organic solvents.

[2] = Thermal stability by thermogravimetric analysis (TGA); conditions: TGA at 10% weight loss
Description: (§1) The thermal stability of MILs was measured from 40 to 350° C. at a ramp rate of 5° C. min^−1 by performing thermogravimetric analysis (TGA) using a NETZSCH STA 449 F1 Jupiter thermal analyzer (Selb, Germany). To further investigate the thermal stability of MILs using a more sensitive technique, the solvents were employed as a gas chromatographic (GC) stationary phase and subjected to an oven temperature program from 40 to 200° C. at a ramp rate of 1° C. min^−1 and decomposition/degradation products detected using an ultra-sensitive flame ionization detector (FID), with all measurements being performed on an Agilent Technologies 7890B gas chromatograph (Santa Clara, CA, USA).
Volitization/degradation of MILs as a function of temperature were measured using thermogravimetric analysis. The thermal stability of magnetic ionic liquids was measured from 40 to 350° C. at a ramp rate of 5° C. min^−1 by performing thermogravimetric analysis (TGA) using a NETZSCH STA 449 F1 Jupiter thermal analyzer (Selb, Germany).
To investigate the ability of DGE-based MILs to withstand elevated temperatures without undergoing degradation/decomposition, their thermal stabilities were investigated using thermogravimetric analysis (TGA). FIG. 13 through FIG. 27 display thermograms for MILs 1 to 15. The thermogram results are summarized in greater detail in the following paragraphs.

[3] = Viscosity, Brookfield DVI cone and plate viscometer; conditions: 21.7° C.; neat MIL dried 48 hours under vacuum
Description: A Brookfield DVI cone and plate viscometer equipped with a CPA-51Z cone spindle was employed to obtain viscosity measurements at […] using approximately 0.5 g of each MIL after extensive drying for 48 hours under vacuum. Viscosity measurements were conducted at 21.7° C. for 15 lanthanide and transition metal MILs examined in this study.
Viscosity measurements were conducted at 21.7° C. for 15 lanthanide and transition metal MILs examined in this study.

[4] = Thermal stability, MIL as GC stationary phase with FID; conditions: exponential increase in response beyond 2,000 pA
Description: as §1
To further investigate the thermal stability of MILs using a more sensitive technique, the solvents were employed as a gas chromatographic (GC) stationary phase and subjected to an oven temperature program from 40 to 200° C. at a ramp rate of 1° C. min^−1 and decomposition/degradation products detected using an ultra-sensitive flame ionization detector (FID).

[5] = Effective magnetic moment from magnetic susceptibility balance (MSB); conditions: per formula unit
Description: Magnetic properties were analyzed using a magnetic susceptibility balance (MSB, Sherwood Scientific, Cambridge, UK) and a Quantum Design Superconducting Quantum Interference Device (SQUID) magnetometer (MPMS XL-7). The magnetic properties of transition metal MILs were further studied using a SQUID magnetometer to confirm their paramagnetic nature as well as if any magnetic transition occurs in the samples.
Magnetic susceptibility (XM) was calculated through Equation (1).
Effective magnetic moment (μeff) was calculated through Equation (2). In Equation (2), T represents the temperature at which the magnetic susceptibility measurements were conducted.
15 MILs incorporating rare-earth and transition metals were examined using a magnetic susceptibility balance (MSB).

[6] = acetone, chloroform, dichloromethane, acetonitrile, methanol, ethanol, diethyl ether, ethyl acetate, isopropanol at 20% (w/v)
[7] = hexane, heptane, benzene, toluene at 10% (w/v)
[8] = hexane, heptane, benzene, toluene at 20% (w/v)
[9] = twelve organic solvents (without acetonitrile) at 50% (w/v)

Structure (SMILES)	Solubility [1, 6]	Solubility [1, 7]	Solubility [1, 8]	Solubility [1, 9]	Solubility ([1]; water at 0.01% (w/v))	Onset of MIL volatilization (° C.)^2 [2]	Viscosity (cP) [3]	Onset of MIL volatilization (° C.)^1 [4]	μeff, effective magnetic moment [5]	Solubility ([1]; acetonitrile at 50% (w/v))
CCCCCCCCOC(=O)COCC(=O)OCCCCCCCC.CCCCCCCCOC(=O)COCC(=O)OCCCCCCCC.CCCCCCCCOC(=O)COCC(=O)OCCCCCCCC.CCCCCCCCOC(=O)COCC(=O)OCCCCCCCC.CCCCCCCCOC(=O)COCC(=O)OCCCCCCCC.CCCCCCCCOC(=O)COCC(=O)OCCCCCCCC.O=C(C=C([O-])C(F)(F)F)C(F)(F)F.O=C(C=C([O-])C(F)(F)F)C(F)(F)F.O=C(C=C([O-])C(F)(F)F)C(F)(F)F.O=C(C=C([O-])C(F)(F)F)C(F)(F)F.O=C(C=C([O-])C(F)(F)F)C(F)(F)F.O=C(C=C([O-])C(F)(F)F)C(F)(F)F.[Mn+2].[Mn+2].[Mn+2] [compound 6]	S^b (soluble in acetone, chloroform, dichloromethane, acetonitrile, methanol, ethanol, diethyl ether, ethyl acetate, and isopropanol at 20% (w/v).)	S^a (soluble in hexane, heptane, benzene, and toluene at 10% (w/v).)	S^c (soluble in hexane, heptane, benzene, and toluene at 20% (w/v).)	S^d (soluble in acetone, chloroform, dichloromethane, methanol, ethanol, diethyl ether, ethyl acetate, isopropanol hexane, heptane, benzene, and toluene at 50% (w/v).)	S^f (insoluble in water at 0.01% (w/v).)	259.1 °C	96.3 cP	182 °C	10.25 μB	–
O=C(C=C([O-])C(F)(F)F)C(F)(F)F.O=C(C=C([O-])C(F)(F)F)C(F)(F)F.O=C(C=C([O-])C(F)(F)F)C(F)(F)F.O=C(C=C([O-])C(F)(F)F)C(F)(F)F.O=C(C=C([O-])C(F)(F)F)C(F)(F)F.O=C(C=C([O-])C(F)(F)F)C(F)(F)F.O=C(COCC(=O)OC1CCCCC1)OC1CCCCC1.O=C(COCC(=O)OC1CCCCC1)OC1CCCCC1.O=C(COCC(=O)OC1CCCCC1)OC1CCCCC1.O=C(COCC(=O)OC1CCCCC1)OC1CCCCC1.O=C(COCC(=O)OC1CCCCC1)OC1CCCCC1.O=C(COCC(=O)OC1CCCCC1)OC1CCCCC1.[Co+2].[Co+2].[Co+2] [compound 7]	S^b (soluble in acetone, chloroform, dichloromethane, acetonitrile, methanol, ethanol, diethyl ether, ethyl acetate, and isopropanol at 20% (w/v).)	S^a (soluble in hexane, heptane, benzene, and toluene at 10% (w/v).)	S^c (soluble in hexane, heptane, benzene, and toluene at 20% (w/v).)	S^d (soluble in acetone, chloroform, dichloromethane, methanol, ethanol, diethyl ether, ethyl acetate, isopropanol hexane, heptane, benzene, and toluene at 50% (w/v).)	S^f (insoluble in water at 0.01% (w/v).)	200.1 °C	639.4 cP	133 °C	8.11 μB	S^e (insoluble in acetonitrile at 50% (w/v).)
O=C(C=C([O-])C(F)(F)F)C(F)(F)F.O=C(C=C([O-])C(F)(F)F)C(F)(F)F.O=C(C=C([O-])C(F)(F)F)C(F)(F)F.O=C(C=C([O-])C(F)(F)F)C(F)(F)F.O=C(C=C([O-])C(F)(F)F)C(F)(F)F.O=C(C=C([O-])C(F)(F)F)C(F)(F)F.O=C(COCC(=O)OC1CCCCC1)OC1CCCCC1.O=C(COCC(=O)OC1CCCCC1)OC1CCCCC1.O=C(COCC(=O)OC1CCCCC1)OC1CCCCC1.O=C(COCC(=O)OC1CCCCC1)OC1CCCCC1.O=C(COCC(=O)OC1CCCCC1)OC1CCCCC1.O=C(COCC(=O)OC1CCCCC1)OC1CCCCC1.[Ni+2].[Ni+2].[Ni+2] [compound 8]	S^b (soluble in acetone, chloroform, dichloromethane, acetonitrile, methanol, ethanol, diethyl ether, ethyl acetate, and isopropanol at 20% (w/v).)	S^a (soluble in hexane, heptane, benzene, and toluene at 10% (w/v).)	S^c (soluble in hexane, heptane, benzene, and toluene at 20% (w/v).)	S^d (soluble in acetone, chloroform, dichloromethane, methanol, ethanol, diethyl ether, ethyl acetate, isopropanol hexane, heptane, benzene, and toluene at 50% (w/v).)	S^f (insoluble in water at 0.01% (w/v).)	182.2 °C	827.6 cP	154 °C	5.53 μB	S^e (insoluble in acetonitrile at 50% (w/v).)
O=C(C=C([O-])C(F)(F)F)C(F)(F)F.O=C(C=C([O-])C(F)(F)F)C(F)(F)F.O=C(C=C([O-])C(F)(F)F)C(F)(F)F.O=C(C=C([O-])C(F)(F)F)C(F)(F)F.O=C(C=C([O-])C(F)(F)F)C(F)(F)F.O=C(C=C([O-])C(F)(F)F)C(F)(F)F.O=C(COCC(=O)OC1CCCCC1)OC1CCCCC1.O=C(COCC(=O)OC1CCCCC1)OC1CCCCC1.O=C(COCC(=O)OC1CCCCC1)OC1CCCCC1.O=C(COCC(=O)OC1CCCCC1)OC1CCCCC1.O=C(COCC(=O)OC1CCCCC1)OC1CCCCC1.O=C(COCC(=O)OC1CCCCC1)OC1CCCCC1.[Mn+2].[Mn+2].[Mn+2] [compound 9]	S^b (soluble in acetone, chloroform, dichloromethane, acetonitrile, methanol, ethanol, diethyl ether, ethyl acetate, and isopropanol at 20% (w/v).)	S^a (soluble in hexane, heptane, benzene, and toluene at 10% (w/v).)	S^c (soluble in hexane, heptane, benzene, and toluene at 20% (w/v).)	S^d (soluble in acetone, chloroform, dichloromethane, methanol, ethanol, diethyl ether, ethyl acetate, isopropanol hexane, heptane, benzene, and toluene at 50% (w/v).)	S^f (insoluble in water at 0.01% (w/v).)	176.9 °C	478.9 cP	159 °C	9.96 μB	S^e (insoluble in acetonitrile at 50% (w/v).)
CCCCCCCCOC(=O)c1ccc(C(=O)OCCCCCCCC)o1.CCCCCCCCOC(=O)c1ccc(C(=O)OCCCCCCCC)o1.CCCCCCCCOC(=O)c1ccc(C(=O)OCCCCCCCC)o1.CCCCCCCCOC(=O)c1ccc(C(=O)OCCCCCCCC)o1.CCCCCCCCOC(=O)c1ccc(C(=O)OCCCCCCCC)o1.CCCCCCCCOC(=O)c1ccc(C(=O)OCCCCCCCC)o1.O=C(C=C([O-])C(F)(F)F)C(F)(F)F.O=C(C=C([O-])C(F)(F)F)C(F)(F)F.O=C(C=C([O-])C(F)(F)F)C(F)(F)F.O=C(C=C([O-])C(F)(F)F)C(F)(F)F.O=C(C=C([O-])C(F)(F)F)C(F)(F)F.O=C(C=C([O-])C(F)(F)F)C(F)(F)F.[Co+2].[Co+2].[Co+2] [compound 10]	S^b (soluble in acetone, chloroform, dichloromethane, acetonitrile, methanol, ethanol, diethyl ether, ethyl acetate, and isopropanol at 20% (w/v).)	S^a (soluble in hexane, heptane, benzene, and toluene at 10% (w/v).)	S^c (soluble in hexane, heptane, benzene, and toluene at 20% (w/v).)	S^d (soluble in acetone, chloroform, dichloromethane, methanol, ethanol, diethyl ether, ethyl acetate, isopropanol hexane, heptane, benzene, and toluene at 50% (w/v).)	S^f (insoluble in water at 0.01% (w/v).)	163.0 °C	354.7^b cP	147 °C	8.27 μB	–
